Like-named read-outs stand apart in the source and are kept apart here. Where a SMILES comes first, the peptide text is derived from it. The star is where a group is joined. Piv = CC(C)(C)C(=O)*
Key:
[1] = target: T1, recombinant SARS-CoV-2 M^pro (Severe acute respiratory syndrome coronavirus 2, UniProt P0DTD1); type: biochemical; conditions: relative to concentration range 0.1–1 µM
T1 construct: The virus enzyme, called 3CLpro or main protease (M^pro), is essential for viral replication; purchased Proteros

[2] = tested on: human embryonic lung (HEL) fibroblasts; assay: Cytotoxicity, cell morphology (MCC) in HEL cells
[3] = tested on: human cytomegalovirus (HCMV) strain Davis; conditions: read-out: Antiviral Activity (EC50) Davis Strain; HEL cells, virus input 100 CCID50
[4] = tested on: SARS-CoV-2 clinical strain UC-1074; conditions: for EC50: clinical strain UC-1074, 24 h; for activity against SARS-CoV-2 (in words): Vero cells, strains UC-1074 and UC-1075
[5] = tested on: SARS-CoV-2 clinical strain UC-1075; conditions: clinical strain UC-1075, 24 h
[6] = tested on: human cytomegalovirus (HCMV) strain AD-169; conditions: read-out: Antiviral Activity (EC50) AD-169 Strain; HEL cells, virus input 100 CCID50
[7] = tested on: thymidine kinase deficient (TK−) VZV strain 07−1; conditions: read-out: Antiviral Activity (EC50) TK-VZV Strain 07–1; HEL cells, virus input 20 PFU
[8] = tested on: varicella-zoster virus (VZV) wild-type strain Oka; conditions: read-out: Antiviral Activity (EC50) TK+ VZV Strain OKA; HEL cells, virus input 20 PFU
in vitro = conditions: African green monkey
[9] = tested on: varicella-zoster virus (VZV) wild-type strain Oka; assay: microbe, parasite or virus in culture; conditions: Human alphaherpesvirus 3, HEL, read-out: Antiviral Activity (EC50) TK+ VZV Strain OKA
[10] = tested on: human embryonic lung (HEL) fibroblasts; assay: Cytostatic activity, cell growth (CC50) in HEL cells; conditions: read-out: Cytotoxicity Cell Growth (CC50); HEL cells, Table 3 (VZV tests)
[11] = tested on: human cytomegalovirus (HCMV) strain AD-169; assay: microbe, parasite or virus in culture; conditions: Human betaherpesvirus 5, AD169, HEL, read-out: Antiviral Activity (EC50) AD-169 Strain
[12] = Cytostatic activity, cell growth (CC50) in HEL cells; conditions: human, HEL 299 human embryonic lung fibroblasts
[13] = tested on: human cytomegalovirus (HCMV) strain Davis; assay: microbe, parasite or virus in culture; conditions: Human betaherpesvirus 5, HEL, read-out: Antiviral Activity (EC50) Davis Strain
SARS-CoV-2 = conditions: read-out: EC50 (reported value); cited from earlier work
[14] = tested on: SARS-CoV-2 clinical strain UC-1075; assay: microbe, parasite or virus in culture; conditions: Severe acute respiratory syndrome coronavirus 2, UC1075, Vero, 120 h, read-out: Antiviral Activity (EC50) UC-1075
[15] = tested on: SARS-CoV-2 clinical strain UC-1074; assay: microbe, parasite or virus in culture; conditions: Severe acute respiratory syndrome coronavirus 2, UC1074, Vero, 120 h, read-out: Antiviral Activity (EC50) UC-1074

For `CC(C)C[C@H](NC(=O)[C@@H](NC(=O)CNC(=O)CN)C(C)C)C(=O)N[C@H](C(=O)N[C@@H](CCC(N)=O)C(=O)N1CCC[C@H]1C(=O)NCC(=O)O)C(C)C` [AT1001 (1), Larazotide acetate, reference compound] (H-GGVLVQPG-OH), the Inhibition [1] was 27.7 ± 0.2%, the “Cytotoxicity Cell Morphology (MCC)” value ([2]; Table 2 (HCMV tests)) was no less than 100 µM and the “Cytotoxicity Cell Morphology (MCC)” value ([2]; Table 3 (VZV tests)) was no less than 100 µM. The “Cytotoxicity Cell Morphology (MCC)” value (Vero cells) was 100 µM, the EC50 [3] was greater than 20 µM and the EC50 [4] was greater than 20 µM. The EC50 [5] was greater than 20 µM, the EC50 [6] was greater than 20 µM and the EC50 [7] was 59.1 µM. The EC50 [8] was 44.1 µM and the CC50 (in vitro) was 82.5 ± 6.2 µM.
`Nc1nc2c(ncn2COCCO)c(=O)[nH]1` [Aciclovir] showed an EC50 [9] of 8.39 µM.
In the case of `O=c1[nH]c(=O)n([C@H]2C[C@H](O)[C@@H](CO)O2)cc1/C=C/Br` [Birivudine, reference compound], the “Cytotoxicity Cell Morphology (MCC)” value ([2]; Table 3 (VZV tests)) is reported as greater than 300.3 µM, the EC50 [7] is reported as 2.13 µM and the CC50 [10] is reported as greater than 300 µM. The EC50 [8] was 0.23 ± 0.04 µM.
In the case of `Nc1ccn(C[C@@H](CO)OCP(=O)(O)O)c(=O)n1` [Cidofovir], the “Cytotoxicity Cell Morphology (MCC)” value ([2]; Table 2 (HCMV tests)) is reported as no less than 317 µM, the EC50 [11] is reported as 1.27 ± 0.18 µM and the CC50 at 3 days [12] is reported as 159 ± 76.5 µM. The EC50 [13] was 0.67 ± 0.49 µM.
With `Nc1nc(O)c2ncn(COC(CO)CO)c2n1` [Ganciclovir] the “Cytotoxicity Cell Morphology (MCC)” value ([2]; Table 2 (HCMV tests)) was no less than 394 µM, the EC50 [11] was 2.56 ± 0.23 µM and the CC50 at 3 days [12] was 350 µM. For the same compound, the EC50 [13] was 1.18 µM.
For `CC(=O)NCC(=O)NCC(=O)N[C@H](C(=O)N[C@@H](CC(C)C)C(=O)N[C@H](C(=O)N[C@@H](CCC(N)=O)C(=O)N1CCC[C@H]1C(=O)NCC(N)=O)C(C)C)C(C)C` [Peptide 2] (Ac-GGVLVQPG-NH2), the Inhibition [1] was 27.1 ± 0.5%, the “Cytotoxicity Cell Morphology (MCC)” value ([2]; Table 2 (HCMV tests)) was no less than 20 µM and the “Cytotoxicity Cell Morphology (MCC)” value ([2]; Table 3 (VZV tests)) was greater than 100 µM. For the same compound, the “Cytotoxicity Cell Morphology (MCC)” value (Vero cells; Vero cells) was 100 µM, the EC50 [3] was greater than 20 µM and the EC50 [5] was greater than 20 µM. For the same compound, the EC50 [6] was greater than 20 µM, the EC50 [7] was 48.4 µM and the EC50 [8] was 50.1 µM. The CC50 (in vitro) was 83 ± 17 µM.
With `CNC(=O)CNC(=O)[C@@H]1CCCN1C(=O)[C@H](CCC(N)=O)NC(=O)[C@@H](NC(=O)[C@H](CC(C)C)NC(=O)[C@@H](NC(=O)CNC(=O)CNC(C)=O)C(C)C)C(C)C` [Peptide 3] (Ac-GGVLVQPG-NHMe) the Inhibition [1] was 27.4 ± 1.1%, the “Cytotoxicity Cell Morphology (MCC)” value ([2]; Table 2 (HCMV tests)) was no less than 20 µM and the “Cytotoxicity Cell Morphology (MCC)” value ([2]; Table 3 (VZV tests)) was greater than 100 µM. For the same compound, the “Cytotoxicity Cell Morphology (MCC)” value (Vero cells; Vero cells) was 100 µM, the EC50 [3] was greater than 100 µM and the “activity against SARS-CoV-2 (in words)” value [4] was “negligible activity”. For the same compound, the EC50 [4] was greater than 20 µM, the EC50 [5] was greater than 20 µM and the EC50 [6] was greater than 20 µM. For the same compound, the EC50 [7] was 81.1 µM, the EC50 [8] was 58.1 µM and the CC50 (in vitro) was 81.8 ± 2.1 µM.
For `CNC(=O)CNC(=O)[C@@H]1CCCN1C(=O)[C@H](CCC(N)=O)NC(=O)[C@@H](NC(=O)[C@H](CC(C)C)NC(=O)[C@@H](NC(=O)CNC(=O)CNC(=O)C(C)(C)C)C(C)C)C(C)C` [Peptide 4] (Piv-GGVLVQPG-NHMe), the Inhibition [1] was 26.2 ± 0.3%, the “Cytotoxicity Cell Morphology (MCC)” value ([2]; Table 2 (HCMV tests)) was 100 µM and the “Cytotoxicity Cell Morphology (MCC)” value ([2]; Table 3 (VZV tests)) was no less than 100 µM. The “Cytotoxicity Cell Morphology (MCC)” value (Vero cells; Vero cells) was 100 µM, the EC50 [3] was 100 µM and the EC50 [4] was no less than 20 µM. It also gave an EC50 [5] greater than 20 µM, an EC50 [6] greater than 20 µM and an EC50 [7] greater than 100 µM. It also gave an EC50 [8] of 78.2 µM and a CC50 (in vitro) of 74.9 ± 4.9 µM.
With `CNC(=O)[C@H](CCC(N)=O)NC(=O)[C@@H](NC(=O)[C@H](CC(C)C)NC(=O)[C@@H](NC(=O)CNC(C)=O)C(C)C)C(C)C` [Peptide 5, Ac-GVLVQ-NHCH3] (Ac-GVLVQ-NHMe) the Inhibition [1] was 27.0 ± 1.1%, the “Cytotoxicity Cell Morphology (MCC)” value ([2]; Table 2 (HCMV tests)) was no less than 100 µM and the “Cytotoxicity Cell Morphology (MCC)” value ([2]; Table 3 (VZV tests)) was greater than 100 µM. For the same compound, the “Cytotoxicity Cell Morphology (MCC)” value (Vero cells; Vero cells) was 100 µM, the EC50 [3] was greater than 100 µM and the “activity against SARS-CoV-2 (in words)” value [4] was “negligible activity”. For the same compound, the EC50 [4] was greater than 20 µM, the EC50 [5] was greater than 20 µM and the EC50 [6] was greater than 20 µM. The EC50 [7] was greater than 100 µM, the EC50 [8] was 59.8 µM and the CC50 (in vitro) was 75 ± 2.2 µM.
With `CNC(=O)[C@@H](NC(=O)[C@H](CC(C)C)NC(=O)[C@@H](NC(=O)CNC(C)=O)C(C)C)C(C)C` [Peptide 6, Ac-GVLV-NHCH3] (Ac-GVLV-NHMe) the Inhibition [1] was 25.0 ± 0.5%, the “Cytotoxicity Cell Morphology (MCC)” value ([2]; Table 2 (HCMV tests)) was no less than 20 µM and the “Cytotoxicity Cell Morphology (MCC)” value ([2]; Table 3 (VZV tests)) was 100 µM. The “Cytotoxicity Cell Morphology (MCC)” value (Vero cells; Vero cells) was 100 µM, the EC50 [3] was greater than 20 µM and the EC50 [4] was no less than 20 µM. It also gave an EC50 [5] greater than 20 µM, an EC50 [6] greater than 4 µM and an EC50 [7] greater than 20 µM. The EC50 [8] was greater than 20 µM and the CC50 (in vitro) was 77.4 ± 0.7 µM.
In the case of `Cc1cc(C(=O)NC(C)C(=O)NC(C(=O)NC(CC(C)C)C(=O)NC(C=CC(=O)OCc2ccccc2)CC2CCNC2=O)C(C)C)no1` (stereo not shown) [Peptide N3], the EC50 (SARS-CoV-2) is listed as 16.8 ± 1.7 µM.
For `CCC(CC)COC(=O)[C@H](C)N[P@](=O)(OC[C@H]1O[C@@](C#N)(c2ccc3c(N)ncnn23)[C@H](O)[C@@H]1O)Oc1ccccc1` [Remdesivir, reference compound], the “Cytotoxicity Cell Morphology (MCC)” value (Vero cells; Vero cells) was 100 µM, the EC50 [14] was 1.06 ± 0.44 µM and the EC50 [15] was 0.89 ± 0.44 µM. For the same compound, the CC50 (in vitro) was 70.6 ± 4.9 µM.
